Assay results taken from patent US20210238162A1, “CHEMICAL COMPOUNDS” (GlaxoSmithKline Intellectual Property Development Limited, priority 2015, published 2021).
Structures can show the parent of a compound that is named as a salt. Where two headings read alike, the source gives them in different places.

Target: T1, haematopoietic prostaglandin D synthase (H-PGDS) (Homo sapiens, UniProt O60760)
T1 construct: Full length human H-PGDS cDNA (Invitrogen Ultimate ORF IOH13026) was amplified by PCR; made in house; host or cells: E. coli BL21 (DE3*), vector pET22b+
Experiment: H-PGDS RapidFire High Throughput Mass Spectrometry Assay
Format: biochemical
In short: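 PGH2 (~10 μM burst) generated in situ from arachidonic acid by FLAG-tagged human COX-2 (Sf9-expressed), then converted to PGD2 by full-length human His-tagged H-PGDS from E. coli. PGD2 and PGF2α (substrate surrogate) quantified by RapidFire SPE-triple quadrupole MS; percent conversion calculated.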

[1] = H-PGDS RapidFire MS assay, mean pIC50, read-out: Potency Range (mean pIC50) (converted)
[2] = in at least one experimental run, read-out: H-PGDS pIC50 value (converted)

T1 sequence (O60760 whole entry): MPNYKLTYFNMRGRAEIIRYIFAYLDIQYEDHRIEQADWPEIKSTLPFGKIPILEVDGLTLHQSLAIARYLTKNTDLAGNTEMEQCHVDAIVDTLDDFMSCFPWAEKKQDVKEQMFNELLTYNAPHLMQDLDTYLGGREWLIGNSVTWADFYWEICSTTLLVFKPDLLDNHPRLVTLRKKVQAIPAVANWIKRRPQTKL

Compound CC(C)(O)CO[C@H]1CC[C@H](NC(=O)c2cnc3cc(OC(F)F)c(F)cc3c2)CC1 [Example 60, 7-(Difluoromethoxy)-6-fluoro-N-(trans-4-(2-hydroxy-2-methylpropoxy)cyclohexyl)quinoline-3-carboxamide] has an IC50 [1] of 10 to 79.4 nM.

CC(C)(O)[C@H]1CC[C@H](NC(=O)c2cnc3c(F)c(OC(F)F)c(Cl)cc3c2)CC1 [Example 236, 6-Chloro-7-(difluoromethoxy)-8-fluoro-N-(trans-4-(2-hydroxypropan-2-yl)cyclohexyl)quinoline-3-carboxamide] showed an IC50 [1] of less than 10 nM.

In the case of CC(C)C(O)CO[C@H]1CC[C@H](NC(=O)c2cnc3cc(OC(F)F)c(Cl)cc3c2)CC1 (stereo partly drawn) [Example 127, 6-Chloro-7-(difluoromethoxy)-N-(trans-4-(2-hydroxy-3-methylbutoxy)cyclohexyl)quinoline-3-carboxamide], the IC50 [1] is reported as less than 10 nM.

With CC(C)(O)CO[C@H]1CC[C@H](NC(=O)c2cnc3cc(OC(F)F)c(Cl)cc3c2)CC1 [Example 122, 6-Chloro-7-(difluoromethoxy)-N-(trans-4-(2-hydroxy-2-methylpropoxy)cyclohexyl)quinoline-3-carboxamide] the IC50 [1] was less than 10 nM.

For O=C(N[C@H]1CCNC1=O)c1cnc2cc(OC(F)F)c(Br)cc2c1 [Example 154, (S)-6-Bromo-7-(difluoromethoxy)-N-(2-oxopyrrolidin-3-yl)quinoline-3-carboxamide], the IC50 [1] was less than 10 nM.

CC1CCN1c1cc2ncc(C(=O)N[C@H]3CC[C@H](C(C)(C)O)CC3)cc2cc1F (mixture of isomers) [Example 170, 6-Fluoro-N-(trans-4-(2-hydroxypropan-2-yl)cyclohexyl)-7-(2-methylazetidin-1-yl)quinoline-3-carboxamide] showed an IC50 [1] of 10 to 79.4 nM.

C[C@H](N[C@H]1CC[C@H](NC(=O)c2cnc3cc(OC(F)F)c(F)cc3c2)CC1)C(F)F [Example 70, 7-(Difluoromethoxy)-N-(trans-4-(((S)-1,1-difluoropropan-2-yl)amino)cyclohexyl)-6-fluoroquinoline-3-carboxamide] showed an IC50 [1] of less than 10 nM.

O=C(N[C@H]1CCNC1=O)c1cnc2cc(C3CCC3)c(Cl)cc2c1 [Example 181, (S)-6-Chloro-7-cyclobutyl-N-(2-oxopyrrolidin-3-yl)quinoline-3-carboxamide] gave an IC50 [1] of less than 10 nM.

Work on O=C(N[C@H]1CC[C@H](C(O)C2CC2)CC1)c1cnc2cc(OC(F)F)ccc2c1 (stereo partly drawn) [Example 14, N-(trans-4-(-Cyclopropyl(hydroxy)methyl)cyclohexyl)-7-(difluoromethoxy)quinoline-3-carboxamide] yielded an IC50 [1] of less than 10 nM.

With O=C(N[C@H]1CC[C@H](C(O)C(F)(F)F)CC1)c1cnc2cc(OC(F)F)ccc2c1 (stereo partly drawn) [Example 15, 7-(Difluoromethoxy)-N-(trans-4-(2,2,2-trifluoro-1-hydroxyethyl)cyclohexyl)quinoline-3-carboxamide] the IC50 [1] was less than 10 nM and the IC50 [2] was 7.94 nM.

CC(C)(O)[C@H]1CC[C@H](NC(=O)c2cnc3cc(Cl)ccc3c2)CC1 [Example 204, 7-Chloro-N-(trans-4-(2-hydroxypropan-2-yl)cyclohexyl)quinoline-3-carboxamide] showed an IC50 [1] of 100 to 1000 nM and an IC50 [2] of 158 nM.

CC1CN(c2cc3ncc(C(=O)N[C@H]4CC[C@H](C(C)(C)O)CC4)cc3cc2F)C1 [Example 183, 6-Fluoro-N-(trans-4-(2-hydroxypropan-2-yl)cyclohexyl)-7-(3-methylazetidin-1-yl)quinoline-3-carboxamide] gave an IC50 [1] of 10 to 79.4 nM.

N#C[C@H]1CC[C@H](NC(=O)c2cnc3cc(OC(F)F)c(F)cc3c2)CC1 [Example 87, N-(trans-4-Cyanocyclohexyl)-7-(difluoromethoxy)-6-fluoroquinoline-3-carboxamide] showed an IC50 [1] of 10 to 79.4 nM.

In the case of CC(C)(O)[C@H]1CC[C@H](NC(=O)c2cnc3cc(N4CCCC4)c(F)cc3c2)CC1 [Example 163, 6-Fluoro-N-(trans-4-(2-hydroxypropan-2-yl)cyclohexyl)-7-(pyrrolidin-1-yl)quinoline-3-carboxamide], the IC50 [1] is reported as 100 to 1000 nM.

With CC(C)(O)[C@H]1CC[C@H](NC(=O)c2cnc3cc([S+]([O-])C(F)F)c(F)cc3c2)CC1 (stereo partly drawn) [Example 185, 7-((Difluoromethyl)sulfinyl)-6-fluoro-N-(trans-4-(2-hydroxypropan-2-yl)cyclohexyl)quinoline-3-carboxamide] the IC50 [1] was 10 to 79.4 nM.

For CC(C)(O)[C@H]1CC[C@H](NC(=O)c2cnc3cc(C4CC4)ccc3c2)CC1 [Example 192, 7-Cyclopropyl-N-(trans-4-(2-hydroxypropan-2-yl)cyclohexyl)quinoline-3-carboxamide], the IC50 [1] was less than 10 nM.

CC(C)(O)[C@H]1CC[C@H](NC(=O)c2cnc3cc(N4CCC4)c(F)cc3c2)CC1 [Example 162, 7-(Azetidin-1-yl)-6-fluoro-N-(trans-4-(2-hydroxypropan-2-yl)cyclohexyl)quinoline-3-carboxamide] gave an IC50 [1] of less than 10 nM.

Compound O=C(N[C@H]1CCNC1=O)c1cnc2cc(C3CC3)c(Cl)cc2c1 [Example 35, (S)-6-Chloro-7-cyclopropyl-N-(2-oxopyrrolidin-3-yl)quinoline-3-carboxamide hydrochloride] has an IC50 [1] of less than 10 nM.

In the case of CN(C)c1ccc2cc(C(=O)N[C@H]3CC[C@H](C(C)(C)O)CC3)cnc2c1 [Example 196, 7-(Dimethylamino)-N-(trans-4-(2-hydroxypropan-2-yl)cyclohexyl)quinoline-3-carboxamide], the IC50 [1] is reported as less than 10 nM.

Work on CC(C)(O)C(=O)N1CCC(NC(=O)c2cnc3cc(OC(F)F)c(Cl)cc3c2)CC1 [Example 220, 6-Chloro-7-(difluoromethoxy)-N-(1-(2-hydroxy-2-methylpropanoyl)piperidin-4-yl)quinoline-3-carboxamide] yielded an IC50 [1] of less than 10 nM.

For CC(C)(O)[C@H]1CC[C@H](NC(=O)c2cnc3cc(NC4CC4)c(Cl)cc3c2)CC1 [Example 213, 6-Chloro-7-(cyclopropylamino)-N-((trans)-4-(2-hydroxypropan-2-yl)cyclohexyl)quinoline-3-carboxamide], the IC50 [1] was less than 10 nM.

For C[C@]1(O)C[C@@H](NC(=O)c2cnc3cc(OC(F)F)c(F)cc3c2)C1 [Example 93, 7-(Difluoromethoxy)-6-fluoro-N-((1s,3s)-3-hydroxy-3-methylcyclobutyl)quinoline-3-carboxamide], the IC50 [1] was 100 to 1000 nM.

In the case of O=C(NC1CCOCC1)c1cnc2cc(OC(F)F)c(Cl)cc2c1 [Example 148, 6-Chloro-7-(difluoromethoxy)-N-(tetrahydro-2H-pyran-4-yl)quinoline-3-carboxamide], the IC50 [1] is reported as 10 to 79.4 nM.

In the case of COc1cc(F)c2cc(C(=O)NC3CCN(c4nnnn4C)CC3)cnc2c1 [Example 30, 5-Fluoro-7-methoxy-N-(1-(1-methyl-1H-tetrazol-5-yl)piperidin-4-yl)quinoline-3-carboxamide], the IC50 [1] is reported as 10 to 79.4 nM.

For CC(F)(F)c1cc2ncc(C(=O)N[C@H]3CC[C@H](C(C)(C)O)CC3)cc2cc1Cl [Example 231, 6-Chloro-7-(1,1-difluoroethyl)-N-((trans)-4-(2-hydroxypropan-2-yl)cyclohexyl)quinoline-3-carboxamide], the IC50 [1] was less than 10 nM.

C[C@H](NC[C@H]1CC[C@H](NC(=O)c2cnc3cc(OC(F)F)c(F)cc3c2)CC1)C(F)F [Example 100, 7-(Difluoromethoxy)-N-(trans-4-((((S)-1,1-difluoropropan-2-yl)amino)methyl)cyclohexyl)-6-fluoroquinoline-3-carboxamide] gave an IC50 [1] of 10 to 79.4 nM.

With Cn1nnnc1N1CCC(NC(=O)c2cnc3cc(Br)ccc3c2)CC1 [Example 108, 7-Bromo-N-(1-(1-methyl-1H-tetrazol-5-yl)piperidin-4-yl)quinoline-3-carboxamide] the IC50 [1] was 10 to 79.4 nM.

O=C(N[C@H]1CC[C@H](N2CC(F)(F)C2)CC1)c1cnc2cc(OC(F)F)c(F)cc2c1 [Example 71, N-(trans-4-(3,3-Difluoroazetidin-1-yl)cyclohexyl)-7-(difluoromethoxy)-6-fluoroquinoline-3-carboxamide] showed an IC50 [1] of 10 to 79.4 nM.

In the case of C[C@H]1CCN1c1cc2ncc(C(=O)N[C@H]3CCNC3=O)cc2cc1F [Example 176, 6-Fluoro-7-((S)-2-methylazetidin-1-yl)-N—((S)-2-oxopyrrolidin-3-yl)quinoline-3-carboxamide], the IC50 [1] is reported as 10 to 79.4 nM.

O=C(N[C@H]1C[C@H](N2CC(O)(C(F)(F)F)C2)C1)c1cnc2cc(OC(F)F)c(Cl)cc2c1 [Example 214, 6-Chloro-7-(difluoromethoxy)-N-((trans)-3-(3-hydroxy-3-(trifluoromethyl)azetidin-1-yl)cyclobutyl)quinoline-3-carboxamide] showed an IC50 [1] of less than 10 nM and an IC50 [2] of 6.31 nM.

For CC(C)(O)[C@H]1CC[C@H](NC(=O)c2cnc3cc(Br)ccc3c2)CC1 [Example 191, 7-Bromo-N-(trans-4-(2-hydroxypropan-2-yl)cyclohexyl)quinoline-3-carboxamide], the IC50 [1] was 10 to 79.4 nM.

COc1cccc2cc(C(=O)Nc3nccs3)cnc12 [Example 28, 8-Methoxy-N-(thiazol-2-yl)quinoline-3-carboxamide] was tested, and the IC50 [1] was 10 to 79.4 nM.

In the case of CN1CCN(C(=O)[C@H]2CC[C@H](NC(=O)c3cnc4cc(OC(F)F)c(Cl)cc4c3)CC2)CC1 [Example 211, 6-Chloro-7-(difluoromethoxy)-N-((trans)-4-(4-methylpiperazine-1-carbonyl)cyclohexyl)quinoline-3-carboxamide], the IC50 [1] is reported as 10 to 79.4 nM.

Work on CC(C)(O)[C@H]1CC[C@H](NC(=O)c2cnc3cc4c(cc3c2)OCO4)CC1 [Example 195, N-(trans-4-(2-Hydroxypropan-2-yl)cyclohexyl)-[1,3]dioxolo[4,5-q]quinoline-7-carboxamide] yielded an IC50 [1] of 100 to 1000 nM.

In the case of CC(C)(O)[C@H]1CC[C@H](NC(=O)c2cnc3cc(C4CC4(F)F)c(F)cc3c2)CC1 (stereo partly drawn) [Example 151, 7-(2,2-Difluorocyclopropyl)-6-fluoro-N-(trans-4-(2-hydroxypropan-2-yl)cyclohexyl)quinoline-3-carboxamide], the IC50 [1] is reported as 10 to 79.4 nM.
